# Measurements from PubChem BioAssay (NCI).
#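 Assay format: 96-well plates, 48-hour exposure. The concentration for 50% growth inhibition is given as GI50. The concentration for full growth arrest is given as TGI.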
# What was measured:
# Test in all cases: NCI anticancer screen, dose series, 48 h
# [1] = test system: OVCAR-3 ovarian
# [2] = test system: CAKI-1 renal
# [3] = test system: SK-MEL-2 melanoma
# [4] = test system: NCI/ADR-RES ovarian
# [5] = test system: SN12C renal
# [6] = test system: T-47D breast
# [7] = test system: MDA-MB-231 breast
# [8] = test system: A549 NSCLC
# [9] = test system: SK-MEL-5 melanoma
# [10] = test system: SK-OV-3 ovarian
SMILES,TGI [1],TGI [2],TGI [3],TGI [4],TGI [5],TGI [6],TGI [7],TGI [8],TGI [9],TGI [10],GI50 [1],GI50 [2],GI50 [3],GI50 [4],GI50 [6],GI50 [8],GI50 [9]
CCCCOC(=O)C1CC[C@H]2[C@@H]3CCc4cc(OC(=O)c5cccc6c(=O)c7ccccc7[nH]c56)ccc4[C@H]3CC[C@]12C (stereo partly specified),15.3 µM,13.7 µM,18.5 µM,24.3 µM,15.3 µM,14.1 µM,14.5 µM,17.6 µM,12.8 µM,18 µM,–,–,–,–,–,–,–
Cc1ccc(C2(c3ccc(F)cc3)OC(=O)c3ccccc32)c(O)c1 (stereo unspecified),17.9 µM,24.9 µM,30.2 µM,46.8 µM,27.9 µM,28.1 µM,46.1 µM,47.2 µM,33.8 µM,26.4 µM,–,–,–,–,–,–,–
CC(Oc1ccccc1)C(=O)NNC(=O)OC(C)(C)C (stereo unspecified),> 100 µM,> 100 µM,> 100 µM,> 100 µM,> 100 µM,> 100 µM,> 100 µM,> 100 µM,> 100 µM,> 100 µM,–,–,–,–,–,–,–
O=C1/C(=C/c2ccc(O)cc2)COc2ccc(O)c(O)c21,5.79 µM,12.9 µM,38.6 µM,> 100 µM,–,> 100 µM,–,> 100 µM,4.01 µM,–,2.05 µM,3.02 µM,6.21 µM,2.91 µM,3.31 µM,3.6 µM,1.81 µM
O=C(Cn1c(C(=O)c2ccccc2)nc2ccccc21)c1ccccc1,> 100 µM,> 100 µM,> 100 µM,> 100 µM,> 100 µM,> 100 µM,> 100 µM,> 100 µM,> 100 µM,> 100 µM,–,–,–,–,–,–,–
Brc1cccc(C2ON=C(c3ccccc3)N2C23CC4CC(CC(C4)C2)C3)c1 (stereo unspecified),> 10 µM,> 10 µM,> 10 µM,> 10 µM,> 10 µM,> 10 µM,> 10 µM,> 10 µM,> 10 µM,> 10 µM,–,–,–,–,–,–,–
CCCCCCCCCCCCCCCCNc1ccn(C2CC(O)C(COC(c3ccccc3)(c3ccccc3)c3ccc(OC)cc3)O2)c(=O)n1 (stereo unspecified),> 100 µM,> 100 µM,> 100 µM,> 100 µM,> 100 µM,> 100 µM,> 100 µM,> 100 µM,> 100 µM,> 100 µM,–,–,–,–,–,–,–
CNc1ncnc2c1nc(NC1CCCC1)n2C1OC(CO)C(O)C1O (stereo unspecified),> 100 µM,> 100 µM,> 100 µM,> 100 µM,> 100 µM,> 100 µM,> 100 µM,> 100 µM,> 100 µM,> 100 µM,–,–,–,–,–,–,–
O=C1C(c2c(O)[nH]c3ccc(Br)cc23)=Nc2ccc(Br)cc21,> 100 µM,> 100 µM,> 100 µM,> 100 µM,> 100 µM,> 100 µM,79.5 µM,> 100 µM,> 100 µM,90.8 µM,–,–,–,–,–,–,–
Cc1nc2sc(C(=O)c3ccc(Cl)cc3)c(N)c2c(-c2ccccc2Cl)c1C(=O)Nc1ccccc1,33.9 µM,36.8 µM,32.8 µM,60 µM,42.1 µM,19 µM,34.6 µM,31.4 µM,36.6 µM,31.3 µM,–,–,–,–,–,–,–
COc1cc(OC)c2c(c1)OC(c1cccnc1)C(c1ccccc1)C2=O (stereo unspecified),> 100 µM,> 100 µM,> 100 µM,> 100 µM,> 100 µM,> 100 µM,> 100 µM,> 100 µM,> 100 µM,> 100 µM,–,–,–,–,–,–,–
Cc1c2c(n(CC(c3ccccc3)c3ccccc3)c1C)NN=C(C#N)S2(=O)=O,> 100 µM,> 100 µM,> 100 µM,> 100 µM,> 100 µM,> 100 µM,> 100 µM,> 100 µM,> 100 µM,> 100 µM,–,–,–,–,–,–,–
C/C(=N\Nc1nc2ccccc2s1)c1cc2ccccc2cn1,6.96 µM,17.6 µM,> 100 µM,42 µM,30.8 µM,23.2 µM,33.9 µM,> 100 µM,11.9 µM,10.7 µM,–,–,–,–,–,–,–
[N-]=[N+]=CC(=O)OCCCCl,> 100 µM,> 100 µM,> 100 µM,–,> 100 µM,–,> 100 µM,–,> 100 µM,> 100 µM,–,–,–,–,–,–,–
c1ccc2c(c1)cc1n2CCc2c-1[nH]c1ccccc21,> 10 µM,> 10 µM,> 10 µM,> 10 µM,> 10 µM,> 10 µM,> 10 µM,> 10 µM,> 10 µM,> 10 µM,–,–,–,–,–,–,–
CC1(C)OC2OC(C(COS(=O)(=O)C(F)(F)F)N=[N+]=[N-])C(OC(=O)c3ccccc3)C2O1 (stereo unspecified),> 100 µM,> 100 µM,> 100 µM,> 100 µM,> 100 µM,–,> 100 µM,> 100 µM,> 100 µM,> 100 µM,–,–,–,–,–,–,–
Cc1ccc2c(c1)nc1n2C(N)=Nc2ccccc2S1,> 100 µM,> 100 µM,> 100 µM,> 100 µM,> 100 µM,> 100 µM,> 100 µM,> 100 µM,> 100 µM,> 100 µM,–,–,–,–,–,–,–
CN(CCNC(=O)c1c[nH]c2c1Cc1ccccc1-2)CCNC(=O)c1c[nH]c2c1Cc1ccccc1-2,73.7 µM,> 100 µM,52.1 µM,> 100 µM,> 100 µM,–,80.6 µM,> 100 µM,71.4 µM,–,–,–,–,–,–,–,–
C=C=CC(NC(=O)c1ccccc1)(C(=O)O)C(F)(F)F (stereo unspecified),–,–,> 100 µM,–,> 100 µM,–,–,> 100 µM,> 100 µM,–,–,–,–,–,–,–,–
CC(C)=CC[C@]12CCN(C)[C@H]1N(S(=O)(=O)c1ccccc1)c1ccccc12,> 74.4 µM,> 100 µM,55.5 µM,> 100 µM,> 100 µM,> 76 µM,> 100 µM,> 100 µM,–,> 100 µM,–,–,–,–,–,–,–
